IC50 data for 15 compounds are collected here from patent US8389557B2, “Triazole derivatives useful as Axl inhibitors” (Rigel Pharmaceuticals, Inc., priority 2005, dated 2013).

For orientation: IC50 means the concentration at which inhibition is half-maximal. Low values mean inhibition by little substance, high ones a need for much substance.

Structures can show the parent of a compound that is named as a salt.

The experiment deals with T1, Axl (Homo sapiens, UniProt P30530).
T1 construct: endogenous in cells; host or cells: HeLa cells
T1 sequence (P30530 26-894): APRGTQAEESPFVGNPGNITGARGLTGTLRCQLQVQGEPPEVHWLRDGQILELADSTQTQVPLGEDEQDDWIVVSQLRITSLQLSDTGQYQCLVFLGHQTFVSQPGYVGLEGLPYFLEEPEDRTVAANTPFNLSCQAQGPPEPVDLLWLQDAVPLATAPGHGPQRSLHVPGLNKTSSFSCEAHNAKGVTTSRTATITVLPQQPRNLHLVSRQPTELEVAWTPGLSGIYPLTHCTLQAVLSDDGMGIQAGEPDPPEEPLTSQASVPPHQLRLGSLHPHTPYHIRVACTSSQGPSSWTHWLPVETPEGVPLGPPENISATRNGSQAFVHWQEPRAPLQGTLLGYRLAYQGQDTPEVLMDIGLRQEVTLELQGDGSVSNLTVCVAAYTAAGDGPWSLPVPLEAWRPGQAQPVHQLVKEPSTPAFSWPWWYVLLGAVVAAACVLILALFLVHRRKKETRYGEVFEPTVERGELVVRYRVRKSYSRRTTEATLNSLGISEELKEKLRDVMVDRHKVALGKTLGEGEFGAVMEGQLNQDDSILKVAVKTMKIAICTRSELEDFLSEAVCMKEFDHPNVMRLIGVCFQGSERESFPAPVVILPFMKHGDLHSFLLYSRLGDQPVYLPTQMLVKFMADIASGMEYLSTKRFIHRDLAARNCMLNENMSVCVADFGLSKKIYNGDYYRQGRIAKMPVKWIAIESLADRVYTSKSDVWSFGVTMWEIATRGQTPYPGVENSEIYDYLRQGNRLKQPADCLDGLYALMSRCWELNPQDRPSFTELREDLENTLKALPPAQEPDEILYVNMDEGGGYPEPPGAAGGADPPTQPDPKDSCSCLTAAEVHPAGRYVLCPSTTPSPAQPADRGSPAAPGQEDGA
The experiment can be described thus: Phospho-Akt in-cell Western assay (inhibition of Axl activity). In kind it is cell-based. In short, it runs like this:
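HeLa cells on poly-L-lysine, starved 24 h in 0.5% FCS DMEM with Axl/Fc 500 ng/mL, pre-treated with compound 1 h at 37° C. Axl stimulated 5 min by anti-Axl/anti-mouse antibody cross-linking. Fixed cells probed with anti-phospho-Akt and HRP secondary, chemiluminescence read.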

[1] abbreviates: inhibition of Axl activity, phospho-Akt in-cell Western assay, Table 1.
Setting [2] is: inhibition of Axl activity, Table 1.
Where [3] appears, read: Table 4, Hela cells, Axl antibody cross-linking stimulation, phospho-Akt chemiluminescence.

As to `Nc1nc(Nc2ccc3c(c2)OCCO3)n(C(=O)c2ccc(OCCC3OCCO3)cc2)n1` [compound 213], the IC50 (Table 2, Hela cells, Axl antibody cross-linking stimulation, phospho-Akt chemiluminescence) is more than 20 µM.

Take `CC(C)(C)c1ccc(C(=O)n2nc(Nc3ccc(OCCN4CCOCC4)cc3)nc2N)cc1` [compound 266, 5-amino-1-(4-(tert-butyl)phenyl)carbonyl-3-[4-[2-(morpholin-4-yl)ethoxy]phenylamino]-1H-1,2,4-triazole]: under setting [1], the IC50 is less than 1 µM.

Take `Cc1cccc(C(=O)n2nc(Nc3cccc(OCC(=O)NCC4COC(C)(C)O4)c3)nc2N)c1` (stereo not drawn) [compound 148]: under setting [2], the IC50 was in the range of 1 to 10 µM.

With `Nc1nc(Nc2cccc(OCCN3CCOCC3)c2)nn1C(=O)c1ccccc1` [(Ia-26), 5-amino-3-[3-[2-(morpholin-4-yl)ethoxy]phenylamino]-1-phenylcarbonyl-1H-1,2,4-triazole, hydrogen chloride salt], the IC50 under setting [2] is more than 20 µM.

As for `Nc1nc(Nc2ccc(OCCn3ccnc3)cc2)n(C(=O)c2ccc3cc[nH]c3c2)n1` [compound 376, 3-amino-1-(1H-indol-6-yl)carbonyl-5-[4-[2-(imidazol-1-yl)ethoxy]phenylamino]-1H-1,2,4-triazole], under setting [3], the IC50 was less than 1 µM.

`Nc1nc(Nc2ccc(OCCN3CCCC3=O)cc2)nn1C(=O)c1ccc(N2CCOCC2)cc1` [compound 339, 5-amino-1-(4-(morpholin-4-yl)phenyl)carbonyl-3-[4-[2-(pyrrolidin-2-on-1-yl)ethoxy]phenylamino]-1H-1,2,4-triazole] returned an IC50 under setting [1] of 1 to 10 µM.

For the setting “Table 7, Hela cells, Axl antibody cross-linking stimulation, phospho-Akt chemiluminescence”, `COc1ccc(NC(=O)n2nc(Nc3ccc(OCCN4CCCCC4)cc3)nc2N)cc1` [compound 40, 5-amino-N-(4-(methoxy)phenyl)-3-[4-[2-(piperidin-1-yl)ethoxy]phenylamino]-1H-1,2,4-triazole-1-carboxamide] returned an IC50 of 1 to 10 µM.

`COC(=O)COc1ccc(C(=O)n2nc(Nc3ccc4c(c3)OCCO4)nc2N)cc1` [compound 126, 5-amino-3-(1,4-benzodioxan-6-yl)amino-1-[4-(methoxycarbonylmethoxy)phenyl)carbonyl-1H-1,2,4-triazole]: the IC50 under setting [2] lay within 1 to 10 µM.

Consider `Nc1nc(Nc2ccc3c(c2)OCCO3)nn1C(=O)c1ccc(OCCC2OCCO2)cc1` [compound 214], for which the IC50 under setting [2] is 1 to 10 µM.

For `CN(C)c1ccc(C(=O)n2nc(Nc3ccc(OCCCN4CCCC4)cc3)nc2N)cc1` [compound #8, 5-Amino-1-(4-(dimethylamino)phenyl)carbonyl-3-[4-[3-(pyrrolidin-1-yl)propoxy]phenylamino]-1H-1,2,4-triazole], the IC50 under setting [1] is less than 1 µM.

For `Cc1cccc(C(=O)n2nc(Nc3ccc(OCCN4CCCCC4)cc3)nc2N)c1` [compound 59, 5-amino-1-(3-(methyl)phenyl)carbonyl-3-[4-[2-(piperidin-1-yl)ethoxy]phenylamino]-1H-1,2,4-triazole], the IC50 under setting [2] is less than 1 µM.

Turning to `Nc1nc(Nc2ccc(OCCN3CCCC3)cc2)nn1C(=O)c1ccc(-c2ccsc2)cc1` [compound 314, 5-amino-1-(4-(thien-3-yl)phenyl)carbonyl-3-[4-[2-(pyrrolidin-1-yl)ethoxy]phenylamino]-1H-1,2,4-triazole], the IC50 under setting [1] is less than 1 µM.

Under setting [3], `CC1(C)Oc2ccc(C(=O)n3nc(N)nc3Nc3ccc(N4CCCC4)cc3)cc2NC1=O` [compound 296, 3-amino-1-(2,2-dimethyl-2H-benzo[b][1,4]oxazin-3(4H)-on-6-yl)carbonyl-5-[4-(pyrrolidin-1-yl)phenylamino]-1H-1,2,4-triazole] returned an IC50 of 10 to 20 µM.

`CN1CCN(c2ccc(Nc3nc(N)n(C(=O)c4ccc(N(C)C)cc4)n3)cc2)CC1` [compound 361, 5-amino-1-(4-(dimethylamino)phenyl)carbonyl-3-[4-(4-methylpiperazin-1-yl)phenylamino]-1H-1,2,4-triazole] came in with an IC50 under setting [1] of less than 1 µM.

Compound `COCCOCOc1cccc(Nc2nc(N)n(C(=O)c3cccc(C)c3)n2)c1` [compound 212, 5-amino-1-(3-methylphenyl)carbonyl-3-[3-[(2-methoxyethoxy)methoxy]phenylamino]-1H-1,2,4-triazole] yielded an IC50 under setting [2] of 1 to 10 µM.
